From ChEMBL document CHEMBL5390280, “Design, Synthesis, and Biological Evaluation of an Orally Bioavailable, Potent, and Selective ROCK2 Inhibitor for Psoriasis Treatment” (J Med Chem, 2023)
Calls of active or inactive are those of the source. The rule behind the calls is not given here.

Legend:
[1] = Selectivity ratio of IC50 for ROCK1 (unknown origin) to IC50 for ROCK2 (unknown origin)
[2] = system: Mus musculus; assay: Anti-inflammatory activity in Balb/c mouse model of IMQ-induced skin inflammation assessed as decrease in serum IL-17F level at 80 mg/kg, po administered daily for 7 days by IHC analysis; assay type: functional, organism-based; details: time 7.0 day
[3] = Half life in Balb/c mouse at 40 mg/kg, po measured for 0.08 to 24 hrs by LC-MS/MS analysis; assay type: ADME, organism-based; details: in vivo, time 0.08-24 hrs
[4] = system: HaCaT; assay: Anti-psoriasis effect in KGF-stimulated human HaCaT cells assessed as decrease in pSTAT3 level at 2 to 5 uM incubated for 24 hrs by Western blot analysis; assay type: functional, cell-based; details: dose 2-5 µM
[5] = Clearance in Balb/c mouse at 10 mg/kg, iv measured for 0.08 to 24 hrs by LC-MS/MS analysis; assay type: ADME, organism-based; details: in vivo, time 0.08-24 hrs
[6] = system: Mus musculus; assay: Anti-inflammatory activity in Balb/c mouse model of IMQ-induced skin inflammation assessed as decrease in KGF mRNA level in dorsal skin at 40 to 80 mg/kg, po administered daily for 7 days by RT-qPCR analysis; assay type: functional, organism-based; details: dose 40-80 mg/kg, time 7.0 day
[7] = Half life in Balb/c mouse at 10 mg/kg, iv measured for 0.08 to 24 hrs by LC-MS/MS analysis; assay type: ADME, organism-based; details: in vivo, time 0.08-24 hrs
[8] = system: Mus musculus; assay: In vivo inhibition of ROCK2 in Balb/c mouse model of IMQ-induced skin inflammation assessed as decrease in pSTAT5+ cells in dorsal skin at 20 to 80 mg/kg, po administered daily for 7 days by high power field microscopy; assay type: functional, organism-based; details: dose 20-80 mg/kg, time 7.0 day
[9] = system: Mus musculus; assay: Anti-inflammatory activity in Balb/c mouse model of IMQ-induced skin inflammation assessed as decrease in IL-17F mRNA level in dorsal skin at 20 to 40 mg/kg, po administered daily for 7 days by RT-qPCR analysis; assay type: functional, organism-based; details: dose 20-40 mg/kg, time 7.0 day
[10] = system: Mus musculus; assay: Anti-inflammatory activity in Balb/c mouse model of IMQ-induced skin inflammation assessed as reduction in skin swelling at 20 to 80 mg/kg, po administered daily for 7 days; assay type: functional, organism-based; details: dose 20-80 mg/kg, time 7.0 day
[11] = system: Mus musculus; assay: Anti-inflammatory activity in Balb/c mouse model of IMQ-induced skin inflammation assessed as decrease in IL-22 mRNA level in dorsal skin at 20 to 40 mg/kg, po administered daily for 7 days by RT-qPCR analysis; assay type: functional, organism-based; details: dose 20-40 mg/kg, time 7.0 day
[12] = system: Mus musculus; assay: Anti-inflammatory activity in Balb/c mouse model of IMQ-induced skin inflammation assessed as decrease in IL-17F mRNA level in dorsal skin at 80 mg/kg, po administered daily for 7 days by RT-qPCR analysis; assay type: functional, organism-based; details: time 7.0 day
[13] = AUC (0 to t) in Balb/c mouse at 40 mg/kg, po measured for 0.08 to 24 hrs by LC-MS/MS analysis; assay type: ADME, organism-based; parameters: time 0.08-24 hrs, dose 40 mg/kg, route po; details: in vivo
[14] = AUC (0 to t) in Balb/c mouse at 10 mg/kg, iv measured for 0.08 to 24 hrs by LC-MS/MS analysis; assay type: ADME, organism-based; parameters: time upper 24 hrs, time lower 0.08 hrs, dose 10 mg/kg, route iv; details: in vivo
[15] = system: Mus musculus; assay: Anti-inflammatory activity in Balb/c mouse model of IMQ-induced skin inflammation assessed as reduction in skin scales at 20 to 80 mg/kg, po administered daily for 7 days; assay type: functional, organism-based; details: dose 20-80 mg/kg, time 7.0 day
[16] = Toxicity in Balb/c mouse model of IMQ-induced skin inflammation assessed as body weight loss at 80 mg/kg, po administered daily for 7 days; assay type: organism-based; details: in vivo, 168 h, time 7 day
[17] = Tmax in Balb/c mouse at 40 mg/kg, po measured for 0.08 to 24 hrs by LC-MS/MS analysis; assay type: ADME, organism-based; details: in vivo, time 0.08-24 hrs
[18] = system: Mus musculus; assay: In vivo inhibition of ROCK2 in Balb/c mouse model of IMQ-induced skin inflammation assessed as decrease in pSTAT3+ cells in dorsal skin at 20 to 80 mg/kg, po administered daily for 7 days by high power field microscopy; assay type: functional, organism-based; details: dose 20-80 mg/kg, time 7.0 day
[19] = system: HaCaT; assay: Anti-psoriasis effect in KGF-stimulated human HaCaT cells assessed as decrease in MMP-2 level at 2 to 5 uM incubated for 24 hrs by Western blot analysis; assay type: functional, cell-based; details: dose 2-5 µM
[20] = Chemical stability of compound in PBS at pH 7.4 assessed as compound remaining measured after 10 days; assay type: physicochemical; details: time 10 day, read-out: Stability
[21] = system: HaCaT; assay: Anti-psoriasis effect in KGF-stimulated human HaCaT cells assessed as decrease in fibronectin level at 2 to 5 uM incubated for 24 hrs by Western blot analysis; assay type: functional, cell-based; details: dose 2-5 µM
[22] = system: Mus musculus; assay: Anti-inflammatory activity in Balb/c mouse model of IMQ-induced skin inflammation assessed as decrease in serum IL-17A level at 40 to 80 mg/kg, po administered daily for 7 days by IHC analysis; assay type: functional, organism-based; details: dose 40-80 mg/kg, time 7.0 day
[23] = system: Mus musculus; assay: Anti-inflammatory activity in Balb/c mouse model of IMQ-induced skin inflammation assessed as decrease in serum IL-17F level at 40 mg/kg, po administered daily for 7 days by IHC analysis; assay type: functional, organism-based; details: time 7.0 day
[24] = system: Mus musculus; assay: Anti-inflammatory activity in Balb/c mouse model of IMQ-induced skin inflammation assessed as decrease in IL-17A mRNA level in dorsal skin at 20 to 40 mg/kg, po administered daily for 7 days by RT-qPCR analysis; assay type: functional, organism-based; details: dose 20-40 mg/kg, time 7.0 day
[25] = system: HaCaT; assay: Inhibition of KGF-induced hyperproliferation of human HaCaT cells by plate clone formation assay; assay type: functional, cell-based
[26] = AUC (0 to infinity) in Balb/c mouse at 40 mg/kg, po measured for 0.08 to 24 hrs by LC-MS/MS analysis; assay type: ADME, organism-based; parameters: time 0.08-24 hrs, dose 40 mg/kg, route po; details: in vivo
[27] = Lipophilicity, log D of the compound at pH 7.4; assay type: physicochemical; details: buffer
[28] = system: Mus musculus; assay: Anti-inflammatory activity in Balb/c mouse model of IMQ-induced skin inflammation assessed as reduction in skin erythema at 20 to 80 mg/kg, po administered daily for 7 days; assay type: functional, organism-based; details: dose 20-80 mg/kg, time 7.0 day
[29] = system: Mus musculus; assay: Anti-inflammatory activity in Balb/c mouse model of IMQ-induced skin inflammation assessed as decrease in IL-23 mRNA level in dorsal skin at 80 mg/kg, po administered daily for 7 days by RT-qPCR analysis; assay type: functional, organism-based; details: time 7.0 day
[30] = system: Mus musculus; assay: Anti-inflammatory activity in Balb/c mouse model of IMQ-induced skin inflammation assessed as decrease in IL-17A mRNA level in dorsal skin at 80 mg/kg, po administered daily for 7 days by RT-qPCR analysis; assay type: functional, organism-based; details: time 7.0 day
[31] = AUC (0 to infinity) in Balb/c mouse at 10 mg/kg, iv measured for 0.08 to 24 hrs by LC-MS/MS analysis; assay type: ADME, organism-based; parameters: dose 10 mg/kg, time upper 24 hrs, time lower 0.08 hrs, route iv; details: in vivo
[32] = system: HaCaT; assay: Anti-psoriasis effect in KGF-stimulated human HaCaT cells assessed as decrease in elastin level at 2 to 5 uM incubated for 24 hrs by Western blot analysis; assay type: functional, cell-based; details: dose 2-5 µM
[33] = system: Mus musculus; assay: Anti-inflammatory activity in Balb/c mouse model of IMQ-induced skin inflammation assessed as decrease in IL-22 mRNA level in dorsal skin at 80 mg/kg, po administered daily for 7 days by RT-qPCR analysis; assay type: functional, organism-based; details: time 7.0 day
[34] = Volume of distribution at steady state in Balb/c mouse at 10 mg/kg, iv measured for 0.08 to 24 hrs by LC-MS/MS analysis; assay type: ADME, organism-based; details: in vivo, time 0.08-24 hrs, read-out: Vdss

Ratio IC50 [1]: 19
half-life [3]: 1.26 h
clearance [5]: 158 mL/min/kg
half-life [7]: 1.99 h
AUC(0-t) [13]: 300 ng·h/mL
AUC(0-t) [14]: 1040 ng·h/mL
Tmax [17]: 0.25 h
remaining at 240 h [20]: 100%
AUC(0-inf) [26]: 302 ng·h/mL
logD [27]: 0.84
AUC(0-inf) [31]: 1060 ng·h/mL
Vd [34]: 8.63 L/kg
SMILES: Cc1cc(=O)n(-c2cccc(CN[C@H]3CCC[C@H](Nc4ccc5[nH]ncc5c4)C3)c2)cc1F
Activity [2]: inactive
Activity [4]: Active
Activity [6]: Active
Activity [8]: Active
Activity [9]: Active
Activity [10]: Active
Activity [11]: Active
Activity [12]: inactive
Activity [15]: Active
Activity [16]: Non-Toxic
Activity [18]: Active
Activity [19]: Active
Activity [21]: Active
Activity [22]: Active
Activity [23]: Active
Activity [24]: Active
inhibition [25]: Active
Activity [28]: Active
Activity [29]: Active
Activity [30]: Active
Activity [32]: Active
Activity [33]: Active
